According to patent US10265318B2, “Medicinal drug with activity against gram positive bacteria, mycobacteria and fungi” (priority 2015, dated 2019):

Key:
[1] = test system: biofilms of S. aureus MRSA 201/010; assay: 24-hour action upon 24-hour biofilms in 96-well plates, CFU count; details: S. aureus MRSA 201/010 biofilm
Text: (§1) Biofilms used in testing were produced by 24-hour cultivation in 96-well plates.

VRSA strain VT-V-18 = assay: MIC, broth macrodilution (CLSI); details: planktonic, inoculum 10^5 cfu/mL
Experimental: (§2) The MICs were determined using a broth macrodilution method with cation-adjusted Mueller-Hinton broth II (Becton Dickinson) at standard inoculum (10^5 cfu/mL) following the CLSI recommendations.

bacteria and fungi = assay: Antimicrobial activity, overall comparison of the substances; type: cell-based
[2] = test system: biofilms of S. aureus ATCC 29213; assay: 24-hour action upon 24-hour biofilms in 96-well plates, CFU count; details: S. aureus ATCC 29213 biofilm
Text: as §1

MSSA strain ATCC 29213 = assay: MIC, broth macrodilution (CLSI); type: cell-based, S. aureus; details: planktonic, inoculum 10^5 cfu/mL
VRSA strain VT-A-199 = assay: MIC, broth macrodilution (CLSI); details: planktonic, inoculum 10^5 cfu/mL
Experimental: as §2

VRSA strain VT-E-25 = assay: MIC, broth macrodilution (CLSI); details: planktonic, inoculum 10^5 cfu/mL
Experimental: as §2

[3] = test system: biofilms of S. aureus MRSA 24/31; assay: 24-hour action upon 24-hour biofilms in 96-well plates, CFU count; details: S. aureus MRSA 24/31 biofilm
Text: as §1

S. aureus MRSA 24/31 = assay: MIC, broth microdilution or agar dilution (CLSI); type: cell-based, Staphylococcus aureus
[4] = test system: Aspergillus fumigatus ATCC 204305; assay: MIC, broth microdilution or agar dilution (CLSI); type: cell-based; details: A. fumigatus ATCC 204305
[5] = test system: Candida albicans ATCC 10231; assay: MIC, broth microdilution or agar dilution (CLSI); type: cell-based; details: C. albicans ATCC 10231
S. aureus MRSA 201/010 = assay: MIC, broth microdilution or agar dilution (CLSI); type: cell-based, Staphylococcus aureus

## O=C1NC(=O)C(=Cc2cc(Br)cc(Br)c2O)C(=O)N1 [Compound 1, 5-(3,5-dibromo-2-hydroxybenzylidene) perhydropyrimidine-2.4,6-trione]
[1]; 24-hour action
  decrease of the number of CFU in biofilm: 10,000 times
VRSA strain VT-V-18
  VRSA strain MIC, VT-V-18: 0.7 mg/L
Bacteria and fungi
  antimicrobial activity, comparison among the inventive substances: best activity
[2]; 24-hour action
  decrease of the number of CFU in biofilm: 10,000 times
MSSA strain ATCC 29213
  MSSA strain MIC, ATCC 29213: 0.7 mg/L
VRSA strain VT-A-199
  VRSA strain MIC, VT-A-199: 0.07 mg/L
VRSA strain VT-E-25
  VRSA strain MIC, VT-E-25: 1.5 μg/ml
[3]; 24-hour action
  decrease of the number of CFU in biofilm: 10,000 times

## COc1ccc(CN2C(=O)NC(=O)C(=Cc3cc(Br)cc(Br)c3O)C2=O)cc1 [Compound 15, 1-(4-methoxybenzyl)-5-(3,5-dibromo-2-hydroxybenzylidene) perhydropyrimidine-2.4,6-trione]
Bacteria and fungi
  antimicrobial activity, comparison among the inventive substances: best activity

## O=Cc1cc(Br)cc(Br)c1[O-].[Na+] [Compound 17, 2-formyl-4,6-dibromo sodium phenolate]
Bacteria and fungi
  antimicrobial activity, comparison among the inventive substances: best activity

## O=Cc1cc(Br)cc([N+](=O)[O-])c1[O-].[K+] [Compound 19, 2-formyl-4-bromo-6-nitro potassium phenolate]
Bacteria and fungi
  antimicrobial activity, comparison among the inventive substances: best activity

## CC1(C)SC2C(NC(=O)[C@H](N)c3ccccc3)C(=O)N2C1C(=O)O (stereo partly drawn) [ampicillin, 6-[[(2R)-aminophenylacetyl]amino]-3,3-dimethyl-7-oxo-4-thia-1-azabicyclo[3.2.0]heptane-2carboxylic acid]
[1]; 10 mg/l
  effect on the number of CFU in biofilm: no effect whatsoever
[2]; 10 mg/l
  decrease of the number of CFU in biofilm: 10 times
S. aureus MRSA 24/31
  MIC: no effect
[4]
  MIC: no effect
[3]; 10 mg/l
  effect on the number of CFU in biofilm: no effect whatsoever
[5]
  MIC: no effect
S. aureus MRSA 201/010
  MIC: no effect
